Data from patent publication US4584301A, “Diphenylmethylene piperidines, compositions and methods of use” (Warner-Lambert Company, priority 1985, dated 1986).
Structures can show the parent of a compound that is named as a salt. Where two headings read alike, the source gives them in different places.

Assays:
brain dopamine receptors = assay: Haloperidol receptor binding assay (HRBA), inhibition of 3H-haloperidol binding; conditions: rat corpus striatum, 0.6 nM 3H-haloperidol; for IC50: pH 7.7; for HRBA percent inhibition: 1 nM and 10 nM of test drug in primary screen, concentration per value not given
[1] = target: muscarinic cholinergic receptors; format: binding; conditions: rat brain homogenate, [3H]QNB, 25° C., pH 7.4; for IC50: read-out: MRBA IC50; for MRBA percent inhibition of total specific binding: concentration not given
Histamine H1 receptor = target: T1, Histamine H1 receptor (Rattus norvegicus, UniProt P31390); assay: Affinity for histamine H1 receptors in rat brain membranes; format: binding
T1 construct: Histamine H1 Receptors in Rat Brain Membranes; from tissue; host or cells: rat brain membranes
Description: (§1) for Dopamine D2, Muscarinic, and
(§2) Histamine H1 Receptors in Rat Brain Membranes
*Tran V. T., Lebovitz, R., Toll, L., and Snyder, S. H.: [^3 H]Doxepin
interactions with histamine H1 -receptors in guinea pig and rat brai

Dopamine D2 receptor = Dopamine D2 receptor (Rattus norvegicus, UniProt P61169); assay: Affinity for dopamine D2 receptors in rat brain membranes; format: binding
[2] = target: Muscarinic Cholinergic receptor; assay: Affinity for muscarinic cholinergic receptors in rat brain membranes; format: binding
Protocol: This test uses the displacement of [^3 H] quinuclidinyl benzilate ([^3 H]QNB) from specific muscarinic cholinergic receptors in the rat brain to measure in vitro anticholinergic activity of compounds. […]. A Long-Evans male rat weighing 180-200 grams is routinely used. The brain tissue homogenate along with appropriate concentrations of test compounds and [^3 H]QNB is incubated for one hour at 25° C. in a buffer medium of 50 mM Na-K PO4 pH 7.4. The material is filtered and washed on a millipore filter using Whatman GF/B filters. The filters are counted on a scintillation spectrophotometer. A maximal displacement by 0.1 mM oxotremorine is used to determine how much of the total binding is specific for muscarinic receptors.
Results: The results are reported as percent inhibition of total specific binding. Reference: Yamamura, Henry L. and Snyder, Solomon H. (1974). Muscarinic Cholinergic Binding in Rat Brain Proc. Nat. Acad. Sci. USA Vol 71 No. 5 pp. 1725-1729 May 1974.
as §1, §2

[3] = tested on: apomorphine-induced emesis in dogs; assay: Apomorphine emesis assay; format: in vivo, dog; conditions: Canis lupus familiaris, oral, apomorphine hydrochloride 0.1 mg/kg s.c.
Protocol: 3. APOMORPHINE EMESIS ASSAY
Method: Dogs, unsegregated with respect to breed or sex, are used. They are fasted for 16 hours prior to the administration of the test compound. The test compounds are given orally by stomach tube at intervals prior to a subcutaneous injection of 0.1 mg/kg of apomorphine hydrochloride. The dogs are observed for changes in behavior or signs of neuropharmacologic action during the period between drugs and the emetic. After the apomorphine injection the frequency of vomiting episodes is recorded.
The number of dogs vomiting per total number tested, the number of vomiting episodes for each dog, and the average number of episodes are reported for dogs treated with the test compound and dogs treated with vehicle.
The drug is rated as being active if no vomiting episodes are seen in 50 percent or more of the dogs tested.

[4] = rat brain membranes, read-out: Receptor Ki, Histamine H1

T1 sequence (P31390 whole entry): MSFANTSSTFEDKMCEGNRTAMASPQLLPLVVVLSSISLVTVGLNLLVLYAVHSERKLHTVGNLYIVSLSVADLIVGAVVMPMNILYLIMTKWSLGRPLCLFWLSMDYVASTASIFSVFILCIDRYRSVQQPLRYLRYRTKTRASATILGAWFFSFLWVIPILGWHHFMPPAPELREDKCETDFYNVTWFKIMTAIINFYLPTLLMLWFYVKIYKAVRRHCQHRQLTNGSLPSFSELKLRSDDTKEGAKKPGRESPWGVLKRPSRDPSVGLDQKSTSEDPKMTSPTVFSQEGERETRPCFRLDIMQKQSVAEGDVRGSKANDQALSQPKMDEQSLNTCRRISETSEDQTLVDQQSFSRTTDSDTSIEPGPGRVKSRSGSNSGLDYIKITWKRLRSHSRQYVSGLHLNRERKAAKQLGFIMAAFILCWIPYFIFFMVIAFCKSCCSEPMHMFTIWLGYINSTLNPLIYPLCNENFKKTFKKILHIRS
Chain of Dopamine D2 receptor (P61169 whole entry): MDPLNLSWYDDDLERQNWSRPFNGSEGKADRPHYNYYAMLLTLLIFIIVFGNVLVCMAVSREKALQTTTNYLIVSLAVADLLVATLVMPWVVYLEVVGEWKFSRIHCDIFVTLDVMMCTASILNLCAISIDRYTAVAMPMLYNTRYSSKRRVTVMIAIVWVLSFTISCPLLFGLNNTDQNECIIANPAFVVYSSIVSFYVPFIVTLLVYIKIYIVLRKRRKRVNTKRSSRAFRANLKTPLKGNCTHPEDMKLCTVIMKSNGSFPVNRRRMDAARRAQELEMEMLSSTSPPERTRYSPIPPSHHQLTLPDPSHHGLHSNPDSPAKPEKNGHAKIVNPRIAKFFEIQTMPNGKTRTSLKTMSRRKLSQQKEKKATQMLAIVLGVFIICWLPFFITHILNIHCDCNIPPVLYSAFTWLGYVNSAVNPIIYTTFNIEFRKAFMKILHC

Structure (SMILES) | Ki (Dopamine D2 receptor) | Ki [2] | HRBA percent inhibition (brain dopamine receptors) | MRBA percent inhibition of total specific binding [1] | Ki (Histamine H1 receptor; [4]) | also measured
c1ccc(C(=C2CCN(CCN3CCCC3)CC2)c2ccccc2)cc1 [Compound 2, Piperidine, 4-(diphenylmethylene)-1-[2-(1-pyrrolidinyl)ethyl]-,dihydrochloride] | – | – | – | – | – | IC50 (brain dopamine receptors; unit inferred): 0.309 µM; IC50 [1]: 0.0084 µM
Cl.Cl.Fc1ccc(C(=C2CCN(CCN3CCCCC3)CC2)c2ccc(F)cc2)cc1 [Compound 15, Piperidine, 4-[bis-(4-fluorophenyl)-methylene]-1-[2-(1-piperidinyl)ethyl]-, dihydrochloride] | 0.056 µM | 0.017 µM | 62% | 67% | – | Ki (Histamine H1 receptor): 0.086 µM
CNC(=NC#N)NCCCN1CCC(=C(c2ccccc2)c2ccccc2)CC1 [Compound 22, Guanidine, N'-cyano-N-[3-[4-(diphenylmethylene)-1-piperidinyl]propyl]-N'-methyl] | – | – | 73% | 42% | – | –
c1ccc(C(=C2CCN(CCCN3CCCc4ccccc43)CC2)c2ccccc2)cc1 | 0.042 µM | 0.011 µM | – | – | 0.031 µM | –
c1ccc(C(=C2CCN(CCCN3CCCCC3)CC2)c2ccccc2)cc1 [Compound 4, Piperidine, 4-(diphenylmethylene)-1-[3-(1-piperidinyl)propyl]-,dihydrochloride, hemihydrate] | – | – | – | – | – | IC50 (brain dopamine receptors): 0.0504 µM; IC50 [1]: 0.015 µM
Fc1cccc(C(=C2CCN(CCCN3CCCCC3)CC2)c2cccc(F)c2)c1 [Compound 17, dihydrochloride] | – | – | – | 32% | – | –
O=C(CCCN1CCCCC1)N1CCC(=C(c2ccccc2)c2ccccc2)CC1 [Compound 20, Piperidine, 4-(diphenylmethylene)-1-[1-oxo-4-(1-piperidinyl)butyl]-] | – | – | – | 54% | – | –
CC1(C)CC(=O)C=C(NCCN2CCC(=C(c3ccccc3)c3ccccc3)CC2)C1 [Compound 9, 2-Cyclohexen-1-one, 3-[[2-[4-(diphenylmethylene)-1-piperidinyl]ethyl]amino]-5,5-dimethyl] | 0.075 µM | 0.011 µM | 63% | 73% | 0.056 µM | –
c1ccc(C(=C2CCN(CCN3CCCCC3)CC2)c2ccccc2)cc1 [Compound 3, Piperidine, 4-(diphenylmethylene)-1-[2-(1-piperidinyl)ethyl]-, dihydrochloride, hydrate (4:1)] | 0.105 µM | 0.003 µM | – | – | 0.012 µM | IC50 (brain dopamine receptors): 0.135 µM; IC50 [1]: 0.0181 µM
OC1CCN(CCCN2CCC(=C(c3ccccc3)c3ccccc3)CC2)CC1 [Compound 12, 4-Piperidinol, 1-[3-[4-(diphenylmethylene)-1-piperidinyl]propyl]-,dihydro-chloride, hemihydrate] | 0.025 µM | 0.015 µM | 89% | 63% | 0.0061 µM | –
O=C(CCN1CCC(=C(c2ccccc2)c2ccccc2)CC1)N1CC=C(Oc2ccc(F)cc2)CC1 [Compound 8, pyridine, 1-[3-[4-(diphenylmethylene-1-piperidinyl]-1-oxopropyl]-4-(fluorophenoxy)-1,2,3,6-tetrahydro-, 2-hydroxy-1,2,3-propane tricarboxylate(1:1), dihydrate] | – | – | – | 64% | – | –
CSC(=NC#N)NCCCN1CCC(=C(c2ccccc2)c2ccccc2)CC1 [Compound 21, Carbamimidothioic acid, N'-cyano-N-[3-[4-(diphenylmethylene)-1-piperidinyl]-propyl]-, methyl ester] | 0.032 µM | 0.0086 µM | – | – | 0.00038 µM | IC50 (brain dopamine receptors): 0.0392 µM; IC50 [1]: 0.0647 µM
N#CN=C(NCCCN1CCC(=C(c2ccccc2)c2ccccc2)CC1)N1CCCCC1 [Compound 23, 1-Piperidinecarboximidamine, N'-cyano-N-[3-[4-diphenylmethylene]-1-piperidinyl]propyl] | 0.028 µM | 0.002 µM | 55% | 86% | 0.0017 µM | –
CN1CCCC1CCN1CCC(=C(c2ccc(F)cc2)c2ccc(F)cc2)CC1 (stereo not drawn) [Compound 16, Piperidine, 4-[bis-(4-fluorophenyl)-methylene]-1-[2-(1-methyl-2-pyrrolidinyl)ethyl]-, (E)-2-butanedioate (1:2)] | – | – | 48% | 36% | – | –
Cl.Cl.O.c1ccc(C(=C2CCN(CCCN3CCCc4ccccc43)CC2)c2ccccc2)cc1 [Compound 10, Quinoline, 1-[3-[4-(diphenylmethylene]-1-piperidinyl]propyl]-1,2,3,4-tetrahydro-, dihydrochloride, monohydrate] | – | – | 69% | 83% | – | –
c1ccc(C(=C2CCN(CCN3CCOCC3)CC2)c2ccccc2)cc1 [Compound 1, Morpholine, 4-[2-[4-(diphenylmethylene)-1-piperidinyl]ethyl], dihydrochloride] | 0.031 µM | 0.032 µM | – | – | 0.02 µM | ED50 [3]: ~5 mg/kg; IC50 (brain dopamine receptors): 0.029 µM; IC50 [1]: 0.148 µM
Fc1cccc(C(=C2CCN(CCCN3CCCCC3)CC2)c2ccccc2)c1 [Compound 19, Piperidine, 4-[(3-fluorophenyl)phenylmethylene]-1-[3-(1-piperidinyl)propyl]-, dihydrochloride] | – | – | 36% | 45% | – | –
Cl.Cl.Clc1cccc(C(=C2CCN(CCCN3CCCCC3)CC2)c2ccccc2)c1 [Compound 18, Piperidine, 4-[(3-chlorophenyl)phenylmethylene]-1-[3-(1-piperidinyl)propyl]-, dihydrochloride] | – | – | 52% | 37% | – | –
CN1CCCC1CCN1CCC(=C(c2ccccc2)c2ccccc2)CC1 (stereo not drawn) [Compound 5, Piperidine, 4-(diphenylmethylene)-1-[2-(1-methyl-2-pyrrolidinyl)ethyl]-, dihydrochloride, hemihydrate] | – | – | – | – | – | IC50 (brain dopamine receptors; unit inferred): 0.0727 µM; IC50 [1]: 0.0199 µM
Cl.Cl.c1ccc(C(=C2CCN(CCCCN3CCCCC3)CC2)c2ccccc2)cc1 [Compound 6, Piperidine, 4-(diphenylmethylene)-1-[4-[1-piperidinyl]butyl]-, dihydrochloride] | – | – | – | 83% | – | –
Fc1ccc(C(=C2CCN(CCCN3CCCCC3)CC2)c2ccc(F)cc2)cc1 [Compound 14, Piperidine, 1-[3-(1-piperidinyl)propyl]-4-[bis-(4-fluorophenyl)-methylene]-, dihydrochloride, hydrate (2:1)] | 0.067 µM | 0.023 µM | 73% | 57% | 0.016 µM | –
O=C(CCN1CCC(=C(c2ccccc2)c2ccccc2)CC1)N1CCC(O)(O)CC1 [Compound 11, 4,4-Piperidinediol, 1-[3-[4-(diphenylmethylene)-1-piperidinyl]-1-oxopropyl]] | – | – | – | – | – | IC50 (brain dopamine receptors): 0.367 µM; IC50 [1]: 0.0383 µM
O=C(CCN1CCC(=C(c2ccccc2)c2ccccc2)CC1)N1CCCc2ccccc21 [Compound 7] | – | – | – | 52% | – | –
OCCC1CCN(CCCN2CCC(=C(c3ccccc3)c3ccccc3)CC2)CC1 [Compound 13, 4-Piperidineethanol, 1-[3-[4-(diphenylmethylene)-1-piperidinyl]propyl]-,dihydrochloride, monohydrate] | 0.158 µM | 0.005 µM | 55% | 83% | 0.0195 µM | –
